“And” between values parts separate entries of the source, which are not always exact repeats. Equal entries are not always repeated. Where two headings read alike, the source gives them in different places. Bridge positions count the residues as written; N and C are the ends. Square brackets hold non-standard residues; d marks the D form. Ends that are not written are not given here. Peptide text beside a SMILES is read from it. Dip = N[C@H](C(=O)O)C(c1ccccc1)c1ccccc1; 1Nal = N[C@@H](Cc1cccc2ccccc12)C(=O)O; 2Nal = N[C@@H](Cc1ccc2ccccc2c1)C(=O)O; Cha = N[C@@H](CC1CCCCC1)C(=O)O; Nle = CCCC[C@H](N)C(=O)O
Key:
[1] = target: recombinant wild‐type thrombin (Homo sapiens, UniProt P00734); assay: biochemical
Description: (§1) The reaction was started by addition of the chromogenic substrate S2238 (50 μM). Values of v i/v 0 are plotted as a function of inhibitor concentration, where v 0 and v i are the steady state velocities of S2238 hydrolysis in the absence or presence of inhibitor. Data points are the average of three independent measurements, with errors as ±SD. […] Data points in binding/inhibition measurements are the average of three independent measurements, with errors as ±SD.
(§2) Fluorescence measurements were performed at 25 ± 0.1°C in Tris buffered saline (TBS, 20 mM Tris–HCl, pH 7.4, 0.15 M NaCl, 0.1% PEG‐8000) in a 1 cm‐pathlength cuvette, using a Jasco FP‐6500 spectrofluorimeter, equipped with a Peltier model ETC‐273T temperature control system. […] Briefly, to a solution of αT (50 nM) were added, under gentle magnetic stirring, incremental volumes of ligand stock solutions. The samples were excited at 280 nm (5/5 excitation/emission slit) and the emission intensities were recorded at 334 nm, after subtracting the corresponding spectra of the ligands alone. Fluorescence data were corrected for sample dilution, which was always <2% at the end of the titration. […]
(§3) When the binding of PABA was studied, samples were excited at 336 nm and the emission of PABA was recorded at 376 nm, after baseline subtraction and correction for inner filter effect, as detailed elsewhere (Pontarollo et al., [2017]). […]

[2] = target: thrombin R93A (exosite II) (Homo sapiens, UniProt P00734, R452A); assay: biochemical
Description: as §1, §2, §3

[3] = target: T1, α‐thrombin (αT) (Homo sapiens, UniProt P00734); assay: Tight-binding inhibition of αT amidolytic activity on chromogenic substrate S2238; type: biochemical
T1 construct: goes from Thr1 of the A-chain to Glu295 of the B-chain
Description: Enzyme inhibition assays were all performed at 25 ± 0.1°C in TBS (10 mM Tris–HCl pH 7.4, 0.1% PEG‐8000 w/v) in the presence of 0.15 M or 0.4 M NaCl, using a Jasco double‐beam V‐630 spectrophotometer equipped with a Peltier model PAC‐740 temperature control system (De Filippis et al., [1999]). Tight‐binding inhibition assays were performed by pre‐incubating αT (500 pM) for 30 min with increasing inhibitor concentrations [I]. The reaction started by the addition of the chromogenic substrate S2238 (20 μM) and the release of p‐nitroaniline (pNA) was continuously monitored at 405 nm, using a molar absorptivity of 9920 M^−1∙cm^−1.
(§4) and added with the chromogenic substrate S2238 (100 mM). The values of vi/v0, were plotted as
(§5) a function of the inhibitor, as indicated, where v0 and vi are the steady state velocities in the
(§6) absence or presence of the inhibitor. The data points were interpolated with eq. 3, to yield Kiapp ,
(§7) which was then converted to KI using eq. 4. (B) Slow-binding inhibition. Assays were
(§8) performed by adding aT (50 pM) into a solution of S2238 (40 mM) in the presence of
(§9) Each progress curve was interpolated with
(§10) eq. 5 to obtain the corresponding observed kinetic constant, kobs.Interpolation of the data points
with eq. 6 in the plot of kobs vs. [I], allowed us to estimate the values of kon and koff (see
Methods for details). All measurements were conducted in at 25 ± 0.1°C in TBS, pH 7.4. The
data points are the average of three independent measurements, with error bars as ±SD.

[4] = octanol/water; of the organic molecule corresponding to the amino acid side chain at position 3, not of the peptide; ref Sangster, 1989; cited from earlier work
[5] = test system: αT; settings: at the Arg‐X bond; ref Maraganore et al., 1990; Lombardi et al., 1996, 1999; cited from earlier work
Description: The fragment‐based approach is quite common in drug discovery and has been already exploited for the production of hirulogs, hirutonins, and hirunorms as simplified hirudin analogues (Lombardi et al., [1996]; Maraganore et al., [1990]; Szewczuk et al., [1993]). […] As a result, hirulog I (Angiomax®) is slowly ...

[6] = target: T2, αT (Homo sapiens, UniProt P00734, S568A)
[7] = target: T2, αT; set-up: made in house; settings: cited from earlier work
Description: Abstract Hirudin from Hirudo medicinalis is a bivalent α‐Thrombin (αT) inhibitor, targeting the enzyme active site and exosite‐I, and is currently used in anticoagulant therapy along with its simplified analogue hirulog. […] At variance with hirudin, haemadin targets exosite‐II and therefore (besides the free protease) it also blocks thr ... || The relevance of pharmacological applications of hirudin and its analogues has stimulated intensive research on hematophagous organisms, allowing identification of novel αT protein inhibitors, including the isolation of haemadin from the Indian leech Haemadipsa sylvestris (Strube et al., [1993]). […] However, haemadin binds to the fast form only 7‐fold more tightly than to the Na^+‐free (slow) form, with a coupling free energy ΔG c = ΔG b(fast) − ΔG b(slow) = −1.1 kcal/mol. For comparison, full‐length hirudin and its N‐terminal domain 1–47, bind more tightly to the fast form by ~30‐fold (ΔG c = −2.1 kcal/mol), compared to the slow form (De Filippis et al., [2005]; Di Cera et al., [1997]). The higher af ... || (+ 1 further places)

[8] = target: T3, recombinant wild type thrombin (αT) (Homo sapiens, UniProt P00734); assay: Slow binding inhibition of thrombin amidolytic activity (S2238 progress curves); type: biochemical; settings: slow binding inhibition model (Eq. 5, 6), 25°C, TBS pH 7.4
T3 construct: made in house
Description: as §4, §5, §6, §7, §8, §9, §10
with eq. […]

[9] = target: T4, α‐Thrombin mutant R93A (exosite II) (Homo sapiens, UniProt P00734, R452A); assay: Slow binding inhibition of thrombin mutant R93A; type: biochemical; settings: slow binding inhibition model
T4 construct: made in house
Description: Single X → Ala mutants of αT at either exosite I (Phe34Ala, Lys73Ala, Lys110Ala) and II (Arg93Ala, Arg101Ala) were produced and purified to homogeneity as earlier reported (Acquasaliente et al., [2016]; Pozzi et al., [2013]) (Figure S3) and incubated with haemadin to extract kinetic (k on and k off) and equilibrium (K I) constants of αT inhibition. […]
When slow binding inhibition assays were performed, αT (50 pM) was added to solutions of S2238 (50 μM) in the presence of increasing inhibitor (I) concentrations. From the time‐course release of pNA, [P]t, an observed kinetic constant (k obs) of substrate hydrolysis could be determined as a fitting parameter by interpolating each progress curve at increasing [I] to Equation (5) (Arcone et al., [2009]): (5) Pt=vs∙t+vo−vs/kobs∙1−e^−kobs∙t, where v 0 and v s is the initial or steady state velocity at each [I]. The association (k on) and dissociation (k off) rate constants of αT‐haemedin interaction were determined as fitting parameters by interpolating the data points of k obs as a function of [I] with Equation (6): (6) kobs=kon/1+S/Km∙I+koff. […]

[10] = Thermal denaturation monitored by far‐UV CD; type: physicochemical; settings: PBS pH 7.4, protein 0.69 mg/mL; CD at 233 nm (haemadin) or 220 nm (hirudin); heating 40°C·h^−1; inflection point, rough estimate
Description: CD spectra were recorded on a Jasco J‐810 spectropolarimeter equipped with a Peltier model ETC‐273 T temperature control system (De Filippis, Polverino de Laureto, et al., [1996]). Far and Near UV‐CD spectra were recorded in a 0.1‐ or 1 cm‐pathlength quartz cell at a peptide/protein concentration of 0.47 or 1 mg/mL, respectively. All measurements were performed in phosphate buffered saline (PBS, 10 mM Na2HPO4 pH 7.4, 0.15 M NaCl) at 25 ± 0.1°C. The final spectra resulted from the average of four accumulations after base line subtraction. CD data were expressed as the mean residue ellipticity, [θ] = θ obs·MRW/(10·l·c), where θ obs is the observed signal in degrees, MRW is the mean residue weight, l is the cuvette pathlength in cm, and c is the protein concentration in g∙mL^−1. Stability measurements were carried out by recording the change of the CD signal in the far‐UV region as a function of sample temperature, using a 0.1‐cm pathlength cuvette and linear heating rate of 40°C∙h^−1. The reversibility of thermal unfolding was determined by measuring the recovery of the CD signal upon cooling to the starting temperature. The melting temperature (T m) was estimated from the first‐derivative of the thermal denaturation curve (De Filippis, Vassiliev, et al., [1996]; Frigerio et al., [1996]).

SEFEEFEIDEEEK [Haem(45–57)] gave a Kd [1] of 1.6 µM and a Kd [2] of 1.18 ± 0.09 µM.

In the case of CCCC[C@H](NC(=O)CNC(=O)[C@H](CC1CCCCC1)NC(=O)[C@H](CCCNC(=N)N)NC(=O)[C@@H](N)[C@@H](C)CC)C(=O)NCC(=O)N[C@@H](CCCCN)C(=O)N[C@H](C(=O)N1CCC[C@H]1C(=O)NCC(=O)O)C(C)C [Phe3Cha] (H-IR[Cha]G[Nle]GKVPG-OH), the Ki [3] is given as 3.8 ± 0.1 µM and the “Log P” value [4] is given as 3.88.

In the case of CCCC[C@H](NC(=O)CNC(=O)[C@H](Cc1ccccc1)NC(=O)[C@H](CCCNC(=N)N)NC(=O)[C@@H](N)[C@@H](C)CC)C(=O)NCC(=O)N[C@@H](CCCCN)C(=O)N[C@H](C(=O)N1CCC[C@H]1C(=O)NCC(=O)O)C(C)C [Met5Nle] (H-IRFG[Nle]GKVPG-OH), the Ki [3] is listed as 1.9 ± 0.1 µM and the “Log P” value [4] is listed as 2.73.

In the case of CCCC[C@H](NC(=O)CNC(=O)[C@H](Cc1cccc2ccccc12)NC(=O)[C@H](CCCNC(=N)N)NC(=O)[C@@H](N)[C@@H](C)CC)C(=O)NCC(=O)N[C@@H](CCCCN)C(=O)N[C@H](C(=O)N1CCC[C@H]1C(=O)NCC(=O)O)C(C)C [Phe3αNal] (H-IR[1Nal]G[Nle]GKVPG-OH), the “Log P” value [4] is given as 4.00.

In the case of CCCC[C@H](NC(=O)CNC(=O)[C@@H](NC(=O)[C@H](CCCNC(=N)N)NC(=O)[C@@H](N)[C@@H](C)CC)C(c1ccccc1)c1ccccc1)C(=O)NCC(=O)N[C@@H](CCCCN)C(=O)N[C@H](C(=O)N1CCC[C@H]1C(=O)NCC(=O)O)C(C)C [Phe3DiP] (H-IR[Dip]G[Nle]GKVPG-OH), the Ki [3] is given as 7.4 ± 0.4 µM and the “Log P” value [4] is given as 4.80.

For “hirulog I: synthetic bivalent analogue of hirudin”, the “cleavage by αT” value [5] is given as “slowly cleaved”.

In the case of CCCC[C@H](NC(=O)CNC(=O)[C@H](Cc1ccc(O)cc1)NC(=O)[C@H](CCCNC(=N)N)NC(=O)[C@@H](N)[C@@H](C)CC)C(=O)NCC(=O)N[C@@H](CCCCN)C(=O)N[C@H](C(=O)N1CCC[C@H]1C(=O)NCC(=O)O)C(C)C [Phe3Tyr] (H-IRYG[Nle]GKVPG-OH), the Ki [3] is given as 6.6 ± 0.4 µM and the “Log P” value [4] is given as 1.97.

In the case of CCCC[C@H](NC(=O)CNC(=O)[C@H](Cc1ccc2ccccc2c1)NC(=O)[C@H](CCCNC(=N)N)NC(=O)[C@@H](N)[C@@H](C)CC)C(=O)NCC(=O)N[C@@H](CCCCN)C(=O)N[C@H](C(=O)N1CCC[C@H]1C(=O)NCC(=O)NCC(=O)NCC(=O)N1CCC[C@H]1C(=O)N[C@@H](CCCCN)C(=O)N1CCC[C@H]1C(=O)N[C@@H](CO)C(=O)N[C@@H](CO)C(=O)N[C@@H](CCC(=O)O)C(=O)N[C@@H](Cc1ccccc1)C(=O)N[C@@H](CCC(=O)O)C(=O)N[C@@H](CCC(=O)O)C(=O)N[C@@H](Cc1ccccc1)C(=O)N[C@@H](CCC(=O)O)C(=O)N[C@H](C(=O)N[C@@H](CC(=O)O)C(=O)N[C@@H](CCC(=O)O)C(=O)N[C@@H](CCC(=O)O)C(=O)N[C@@H](CCC(=O)O)C(=O)N[C@@H](CCCCN)C(=O)O)[C@@H](C)CC)C(C)C [haemanorm] (H-IR[2Nal]G[Nle]GKVPGGGPKPSSEFEEFEIDEEEK-OH), the Ki [3] is reported as 0.0008 µM and the “resistance to proteolysis by αT at the Arg2‐βNal bond” value [6] is reported as “fully resistant”.

In the case of CCCC[C@H](NC(=O)CNC(=O)[C@H](Cc1ccc2ccccc2c1)NC(=O)[C@H](CCCNC(=N)N)NC(=O)[C@@H](N)[C@@H](C)CC)C(=O)NCC(=O)N[C@@H](CCCCN)C(=O)N[C@H](C(=O)N1CCC[C@H]1C(=O)NCC(=O)O)C(C)C [Phe3βNal] (H-IR[2Nal]G[Nle]GKVPG-OH), the Ki [3] is listed as 0.19 ± 0.01 µM and the “Log P” value [4] is listed as 4.00.

In the case of VSYTD [reference compound], the “inhibition of αT” value ([3]; not shown) is reported as “lacks any significant inhibition”.

For “N‐terminal domain 1–40: N‐terminal domain 1–40 of haemadin (Richardson et al., 2002)”, the Ki ([7]; ref Richardson et al., 2002) is listed as 0.005 µM.

“Phe3Trp: Phe3′ → Trp analogue of Haem(1–10)” gave a Ki ([3]; 25 ± 0.1°C, TBS, αT 250 pM incubated with peptide, S2238 50 μM, tight‐binding model (Eq. 3, 4), average of three independent measurements ± SD, read-out: K I) of 2.9 ± 0.3 µM.

“IRFGMGKVPCPDGEVGYTCDCGEKICLYGQSCNDGQCSGDPKPSSEFEEFEIDEEEK (disulfide 10-19, 21-32, 26-37) [haemadin]” gave a Ki [3] of 1.5e-06 ± 5e-08 µM, a koff [8] of 4.83e-05 ± 2e-07 s⁻¹ and a kon ([8]; αT 50 pM added to S2238 plus inhibitor) of 2.253e+08 ± 200000 M⁻¹ s⁻¹. For the same compound, the koff [9] was 3.68e-05 ± 1e-07 s⁻¹ and the kon [9] was 2.998e+08 ± 300000 M⁻¹ s⁻¹.

In the case of hirudin, the “melting temperature (T m)” value [10] is listed as 63 ± 1 °C and ~ 63 °C, the “coupling free energy ΔG c” value ([7]; fast vs slow form, ref De Filippis et al., 2005, Di Cera et al., 1997) is listed as -2.1 kcal/mol and the “fold tighter binding to fast form than to slow form” value ([7]; ref De Filippis et al., 2005, Di Cera et al., 1997) is listed as ~ 30 fold.
